Source: patent publication US9586961B2, “Homopiperazine derivatives as protein tyrosine kinase inhibitors and pharmaceutical use thereof” (LEO PHARMA A/S, priority 2010, dated 2017)

Key:
Assay type in all cases: biochemical
JAK2 = biological target: T1, JAK2 (Homo sapiens, UniProt O60674); experiment: JAK2 kinase assay (HTRF, inhibition of phosphorylation of a synthetic peptide); details: catalytic domain, His-tag; 4 μM ATP (Km); read-out: JAK2 kinase inhibitory activity (EC50)
T1 construct: All four purified enzymes contain only the catalytic domain; His (N); purchased Carna Biosciences, Inc; host or cells: baculovirus expression system
Protocol: (§1) JAK1, JAK2, JAK3 and TYK2 Kinase Assays:
(§2) Human baculovirus-expressed JAK1, 2, 3 and TYK2 were purchased from Carna Biosciences, Inc. All four purified enzymes contain only the catalytic domain. JAK1 (aa 850-1154) and TYK2 (aa 871-1187) are expressed with an N-terminally fused GST-tag, and JAK2 and JAK3 with an N-terminally fused His-tag. Inhibition of phosphorylation of a synthetic peptide was measured in an HTRF-based assay using the TK substrate-Biotin from the CisbioHTRFKinEASE TK kit. First, 2 μl of TK solution (TK substrate-biotin in kinase buffer [1× enzymatic buffer from HTRFKinEASE TK kit, 1 mM DTT]) is added to a plate containing 1 μl prediluted compound (final assay concentration DMSO: 0.75%). Then, 5 μl kinase-ATP mix (prepared in kinase buffer) is added to the wells and the plates are incubated at RT for 20-30 min. For all four kinases a concentration of ATP that corresponded to the Km for ATP was used. The final concentrations of buffers, substrate, kinase and ATP were: JAK1: 50 mMHepes buffer pH 7.0, 0.01% BSA, 10 mM MgCl2, 1 mM DTT, 7 μM ATP, 50 nMSEB, 1 μM TK Substrate-Biotin and 5 ng JAK1; JAK2: 50 mM Hepes buffer pH 7.0, 0.01% BSA, 5 mM MgCl2, 1 mM DTT, 4 μM ATP, 1 μM TK Substrate-Biotin and 0.1 ng JAK2; JAK3: 50 mMHepes buffer pH 7.0, 0.01% BSA, 5 mM MgCl2, 1 mM DTT, 2 μM ATP, 1 μM TK Substrate-Biotin and 0.3 ng JAK3; TYK2: 50 mMHepes buffer pH 7.0, 0.01% BSA, 5 mM MgCl2, 1 mM DTT, 13 μM ATP, 50 nMSEB, 1 μM TK Substrate-Biotin and 0.8 ng TYK2. Thereafter, the kinase reaction is stopped by adding 4 μl detection mix (final concentrations: 50 mM Hepes buffer pH 7.0, 0.01% BSA, 0.8 M KF, 20 mM EDTA, 42 nM Streptavidin-XL665 and 1:400 STKAbCryptate) and the plates are incubated overnight in the dark. The HTRF signal is read using an Envision plate reader.

JAK3 = biological target: T2, JAK3 (Homo sapiens, UniProt P52333); experiment: JAK3 kinase assay (HTRF, inhibition of phosphorylation of a synthetic peptide); details: catalytic domain, His-tag; 2 μM ATP (Km); read-out: JAK3 kinase inhibitory activity (EC50)
T2 construct: All four purified enzymes contain only the catalytic domain; His (N); purchased Carna Biosciences, Inc; host or cells: baculovirus expression system
Protocol: as §1, §2

JAK1 = biological target: T3, JAK1 (Homo sapiens, UniProt P23458); experiment: JAK1 kinase assay (HTRF, inhibition of phosphorylation of a synthetic peptide); details: catalytic domain aa 850-1154, GST-tag; 7 μM ATP (Km); read-out: JAK1 kinase inhibitory activity (EC50)
T3 construct: JAK1 (aa 850-1154) and TYK2 (aa 871-1187) are expressed with an N-terminally fused GST-tag; GST (N); purchased Carna Biosciences, Inc; host or cells: baculovirus expression system
Protocol: as §1, §2

T1 sequence (O60674 849-1124 limits assumed): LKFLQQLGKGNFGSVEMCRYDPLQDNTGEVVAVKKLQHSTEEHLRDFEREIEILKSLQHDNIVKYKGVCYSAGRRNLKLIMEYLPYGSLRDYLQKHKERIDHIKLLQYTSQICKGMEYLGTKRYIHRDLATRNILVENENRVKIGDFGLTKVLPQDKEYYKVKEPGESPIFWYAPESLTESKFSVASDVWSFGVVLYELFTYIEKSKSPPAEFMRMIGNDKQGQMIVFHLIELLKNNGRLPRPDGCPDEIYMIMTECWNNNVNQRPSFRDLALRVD
T2 sequence (P52333 822-1111 limits assumed): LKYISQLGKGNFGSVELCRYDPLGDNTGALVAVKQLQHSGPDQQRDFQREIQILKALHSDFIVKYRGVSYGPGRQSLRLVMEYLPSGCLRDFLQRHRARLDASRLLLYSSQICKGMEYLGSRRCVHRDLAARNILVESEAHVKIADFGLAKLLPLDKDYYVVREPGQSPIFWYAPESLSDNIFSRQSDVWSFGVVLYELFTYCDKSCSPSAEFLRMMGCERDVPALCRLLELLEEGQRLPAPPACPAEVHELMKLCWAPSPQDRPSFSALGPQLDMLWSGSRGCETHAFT
T3 sequence (P23458 850-1154): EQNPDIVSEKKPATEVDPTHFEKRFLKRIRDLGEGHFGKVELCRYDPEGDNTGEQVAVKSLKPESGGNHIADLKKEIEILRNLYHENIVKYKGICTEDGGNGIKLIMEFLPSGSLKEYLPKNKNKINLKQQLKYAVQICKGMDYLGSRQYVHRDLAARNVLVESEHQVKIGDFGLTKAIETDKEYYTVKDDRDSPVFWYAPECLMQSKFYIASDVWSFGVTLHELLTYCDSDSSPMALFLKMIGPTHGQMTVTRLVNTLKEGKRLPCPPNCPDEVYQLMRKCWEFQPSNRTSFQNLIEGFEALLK

## O=C(CN1C(=O)CSC1=O)N1CCN(c2ncnc3[nH]ccc23)CC2(CC2)C1 [Example 79, 3-[2-oxo-2-[5-(7H-pyrrolo[2,3-d]pyrimidin-4-yl)-5,8-diazaspiro[2.6]nonan-8-yl]ethyl]thiazolidine-2,4-dione]
JAK2
  EC50: < 100 nM
JAK3
  EC50: < 100 nM
JAK1
  EC50: < 100 nM

## CN1CC(=O)N(CC(=O)N2CCN(c3ncnc4[nH]ccc34)CC3(CC3)C2)C1=O [Example 80, 1-methyl-3-[2-oxo-2-[5-(7H-pyrrolo[2,3-d]pyrimidin-4-yl)-5,8-diazaspiro[2.6]nonan-8-yl]ethyl]imidazolidine-2,4-dione]
JAK2
  EC50: < 100 nM
JAK3
  EC50: 100 to 1000 nM
JAK1
  EC50: 100 to 1000 nM

## O=C(CN1CCOC1=O)N1CCN(c2ncnc3[nH]ccc23)CC2(CC2)C1 [Example 81, 3-[2-oxo-2-[5-(7H-pyrrolo[2,3-d]pyrimidin-4-yl)-5,8-diazaspiro[2.6]nonan-8-yl]ethyl]oxazolidin-2-one]
JAK2
  EC50: 100 to 1000 nM
JAK3
  EC50: 100 to 1000 nM
JAK1
  EC50: 100 to 1000 nM

## CN1CCN(CC(=O)N2CCN(c3ncnc4[nH]ccc34)CC3(CC3)C2)C1=O [Example 82, 1-methyl-3-[2-oxo-2-[5-(7H-pyrrolo[2,3-d]pyrimidin-4-yl)-5,8-diazaspiro[2.6]nonan-8-yl]ethyl]imidazolidin-2-one]
JAK2
  EC50: 100 to 1000 nM
JAK3
  EC50: 100 to 1000 nM
JAK1
  EC50: 100 to 1000 nM

## CN1CCN(CC(=O)N2CCCN(c3ncnc4[nH]ccc34)CC23CC3)C1=O [Example 83, 1-methyl-3-[2-oxo-2-[5-(7H-pyrrolo[2,3-d]pyrimidin-4-yl)-5,9-diazaspiro[2.6]nonan-9-yl]ethyl]imidazolidin-2-one]
JAK2
  EC50: 100 to 1000 nM
JAK3
  EC50: 100 to 1000 nM
JAK1
  EC50: 100 to 1000 nM

## O=C1CCC(=O)N1CC(=O)N1CCCN(c2ncnc3[nH]ccc23)CC12CC2 [Example 84, 1-[2-oxo-2-[5-(7H-pyrrolo[2,3-d]pyrimidin-4-yl)-5,9-diazaspiro[2.6]nonan-9-yl]ethyl]pyrrolidine-2,5-dione]
JAK2
  EC50: 100 to 1000 nM
JAK3
  EC50: 100 to 1000 nM
JAK1
  EC50: 100 to 1000 nM

## O=C1CSC(=O)N1CC(=O)N1CCCN(c2ncnc3[nH]ccc23)CC12CC2 [Example 85, 3-[2-oxo-2-[5-(7H-pyrrolo[2,3-d]pyrimidin-4-yl)-5,9-diazaspiro[2.6]nonan-9-yl]ethyl]thiazolidine-2,4-dione]
JAK2
  EC50: 100 to 1000 nM
JAK3
  EC50: 100 to 1000 nM
JAK1
  EC50: 100 to 1000 nM

## O=C1OCCN1CC(=O)N1CCCN(c2ncnc3[nH]ccc23)CC12CC2 [Example 86, 3-[2-oxo-2-[5-(7H-pyrrolo[2,3-d]pyrimidin-4-yl)-5,9-diazaspiro[2.6]nonan-9-yl]ethyl]oxazolidin-2-one]
JAK2
  EC50: 100 to 1000 nM
JAK3
  EC50: > 1000 nM
JAK1
  EC50: > 1000 nM

## O=C(Cc1cscn1)N1CCN(c2ncnc3[nH]ccc23)CC2(CC2)C1 [Example 88, 1-[5-(7H-pyrrolo[2,3-d]pyrimidin-4-yl)-5,8-diazaspiro[2.6]nonan-8-yl]-2-thiazol-4-yl-ethanone]
JAK2
  EC50: 100 to 1000 nM
JAK3
  EC50: 100 to 1000 nM
JAK1
  EC50: 100 to 1000 nM

## O=C(Cc1cnc[nH]1)N1CCN(c2ncnc3[nH]ccc23)CC2(CC2)C1 [Example 89, 2-(1H-imidazol-5-yl)-1-[5-(7H-pyrrolo[2,3-d]pyrimidin-4-yl)-5,8-diazaspiro[2.6]nonan-8-yl]ethanone]
JAK2
  EC50: 100 to 1000 nM
JAK3
  EC50: 100 to 1000 nM
JAK1
  EC50: 100 to 1000 nM

## Cc1ccc(S(=O)(=O)N2CCN(c3ncnc4[nH]ccc34)CC3(CC3)C2)cc1 [Example 96, 4-[8-(p-tolylsulfonyl)-5,8-diazaspiro[2.6]nonan-5-yl]-7H-pyrrolo[2,3-d]pyrimidine]
JAK2
  EC50: 100 to 1000 nM
JAK3
  EC50: > 1000 nM
JAK1
  EC50: 100 to 1000 nM

## Cc1oncc1C(=O)N1CCN(c2ncnc3[nH]ccc23)CC2(CC2)C1 [Example 108, (5-methylisoxazol-4-yl)-[5-(7H-pyrrolo[2,3-d]pyrimidin-4-yl)-5,8-diazaspiro[2.6]nonan-8-yl]methanone]
JAK2
  EC50: 100 to 1000 nM
JAK3
  EC50: 100 to 1000 nM
JAK1
  EC50: 100 to 1000 nM

## Cc1ccccc1C(=O)N1CCN(c2ncnc3[nH]ccc23)CC2(CC2)C1 [Example 109, o-tolyl-[5-(7H-pyrrolo[2,3-d]pyrimidin-4-yl)-5,8-diazaspiro[2.6]nonan-8-yl]methanone]
JAK2
  EC50: 100 to 1000 nM
JAK3
  EC50: > 1000 nM
JAK1
  EC50: > 1000 nM

## Cc1ccccc1C(=O)N1CCCN(c2ncnc3[nH]ccc23)CC12CC2 [Example 110, o-tolyl-[5-(7H-pyrrolo[2,3-d]pyrimidin-4-yl)-5,9-diazaspiro[2.6]nonan-9-yl]methanone]
JAK2
  EC50: 100 to 1000 nM
JAK3
  EC50: > 1000 nM
JAK1
  EC50: 100 to 1000 nM

## O=C(c1ccccc1F)N1CCN(c2ncnc3[nH]ccc23)CC2(CC2)C1 [Example 111, (2-fluorophenyl)-[5-(7H-pyrrolo[2,3-d]pyrimidin-4-yl)-5,8-diazaspiro[2.6]nonan-8-yl]methanone]
JAK2
  EC50: < 100 nM
JAK3
  EC50: > 1000 nM
JAK1
  EC50: 100 to 1000 nM

## O=C(c1ccccc1F)N1CCCN(c2ncnc3[nH]ccc23)CC12CC2 [Example 112, (2-fluorophenyl)-[5-(7H-pyrrolo[2,3-d]pyrimidin-4-yl)-5,9-diazaspiro[2.6]nonan-9-yl]methanone]
JAK2
  EC50: < 100 nM
JAK3
  EC50: 100 to 1000 nM
JAK1
  EC50: 100 to 1000 nM

## O=C(c1ccc(F)cc1)N1CCN(c2ncnc3[nH]ccc23)CC2(CC2)C1 [Example 113, (4-fluorophenyl)-[5-(7H-pyrrolo[2,3-d]pyrimidin-4-yl)-5,8-diazaspiro[2.6]nonan-8-yl]methanone]
JAK2
  EC50: 100 to 1000 nM
JAK3
  EC50: 100 to 1000 nM
JAK1
  EC50: 100 to 1000 nM

## O=C(c1ccc(F)cc1)N1CCCN(c2ncnc3[nH]ccc23)CC12CC2 [Example 114, (4-fluorophenyl)-[5-(7H-pyrrolo[2,3-d]pyrimidin-4-yl)-5,9-diazaspiro[2.6]nonan-9-yl]methanone]
JAK2
  EC50: < 100 nM
JAK3
  EC50: 100 to 1000 nM
JAK1
  EC50: 100 to 1000 nM

## N#Cc1ccc(/C=C/C(=O)N2CCN(c3ncnc4[nH]ccc34)CC3(CC3)C2)cc1 [Example 117, 4-[(E)-3-oxo-3-[5-(7H-pyrrolo[2,3-d]pyrimidin-4-yl)-5,8-diazaspiro[2.6]nonan-8-yl]prop-1-enyl]benzonitrile]
JAK2
  EC50: 100 to 1000 nM
JAK1
  EC50: 100 to 1000 nM

## N#Cc1cccc(OCC(=O)N2CCN(c3ncnc4[nH]ccc34)CC3(CC3)C2)c1 [Example 118, 3-[2-oxo-2-[5-(7H-pyrrolo[2,3-d]pyrimidin-4-yl)-5,8-diazaspiro[2.6]nonan-8-yl]ethoxy]benzonitrile]
JAK2
  EC50: < 100 nM
JAK3
  EC50: 100 to 1000 nM
JAK1
  EC50: 100 to 1000 nM

## O=C(c1cnon1)N1CCCN(c2ncnc3[nH]ccc23)CC12CC2 [Example 121, 1,2,5-oxadiazol-3-yl-[5-(7H-pyrrolo[2,3-d]pyrimidin-4-yl)-5,9-diazaspiro[2.6]nonan-9-yl]methanone]
JAK2
  EC50: 100 to 1000 nM
JAK3
  EC50: < 100 nM
JAK1
  EC50: 100 to 1000 nM

## Cc1cc(C(=O)N2CCCN(c3ncnc4[nH]ccc34)CC23CC3)on1 [Example 122, (3-methylisoxazol-5-yl)-[5-(7H-pyrrolo[2,3-d]pyrimidin-4-yl)-5,9-diazaspiro[2.6]nonan-9-yl]methanone]
JAK2
  EC50: < 100 nM
JAK3
  EC50: 100 to 1000 nM
JAK1
  EC50: < 100 nM

## CCCC1=NOC(C(=O)N2CCCN(c3ncnc4[nH]ccc34)CC23CC3)C1 (centres unmarked) [Example 124, (3-propyl-4,5-dihydroisoxazol-5-yl)-[5-(7H-pyrrolo[2,3-d]pyrimidin-4-yl)-5,9-diazaspiro[2.6]nonan-9-yl]methanone]
JAK2
  EC50: 100 to 1000 nM
JAK3
  EC50: 100 to 1000 nM
JAK1
  EC50: 100 to 1000 nM

## O=C(Cc1ccc(Cl)cc1)N1CCCN(c2ncnc3[nH]ccc23)CC12CC2 [Example 126, 2-(4-chlorophenyl)-1-[5-(7H-pyrrolo[2,3-d]pyrimidin-4-yl)-5,9-diazaspiro[2.6]nonan-9-yl]ethanone]
JAK2
  EC50: < 100 nM
JAK3
  EC50: 100 to 1000 nM
JAK1
  EC50: 100 to 1000 nM

## O=C(c1cccnc1)N1CCN(c2ncnc3[nH]ccc23)CC2(CC2)C1 [Example 127, 3-pyridyl-[5-(7H-pyrrolo[2,3-d]pyrimidin-4-yl)-5,8-diazaspiro[2.6]nonan-8-yl]methanone]
JAK2
  EC50: 100 to 1000 nM
JAK3
  EC50: > 1000 nM
JAK1
  EC50: 100 to 1000 nM
